The source of these data is patent US9284283B2, “Macrocyclic compounds for modulating IL-17” (ENSEMBLE THERAPEUTICS CORPORATION, priority 2012, dated 2016).

Structures are written as SMILES.

By IC50 is commonly meant the concentration that gives 50% inhibition.

This assay has as its target T1, biotinylated human IL-17 (binding to IL17R/Fc) (Homo sapiens, UniProt Q16552).
T1 construct: purchased R&D Systems 317-ILB (IL-17, biotinylated); 177-IR (IL17R/Fc)
T1 sequence (Q16552 20-155 limits assumed): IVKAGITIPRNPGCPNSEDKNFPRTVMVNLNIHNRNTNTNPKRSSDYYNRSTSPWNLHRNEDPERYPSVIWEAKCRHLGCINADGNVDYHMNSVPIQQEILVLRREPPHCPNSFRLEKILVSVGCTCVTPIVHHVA
Put plainly: IL-17 competition ELISA II (captured IL17R/Fc, biotinylated IL-17). The procedure: In this version, a high binding 96-well plate (Costar #9018) was coated with 20 nM of goat anti-human IgG (KPL 01-10-02) in PBS, 100 μL/well, for 30 min at 37° C. followed by 5 min at 4° C. The plate was then washed in PBST (PBS/0.05% Tween-20) on a plate washer, (BioTek ELx450) then blocked with protein-free blocking buffer (Thermo Scientific #37573) in 250 μL/well for 30 min on a shaker at room temperature, and then washed again. IL17R/Fc (R&D Systems #177-IR; 10 nM in PBST, 100 μL/well) was then added to all wells. The plate was then incubated for 30 minutes at room temperature on the shaker.
While the receptor capture step was underway, compound dilutions were prepared in PBST to a concentration of 1 μM in 1.5 mL tubes. After the receptor capture step, the plate was washed and 50 μL PBST was added to the wells in row B down to row H. Then, 62.5 μL of the 1 μM compound dilutions were added to the wells of row A. From row A, 12.5 μL of the compound solution was removed and added to row B with mixing and this process of 5-fold dilutions was continued, by row, to row G. One of the wells in row A received only PBST (62.5 μL) and this dilution series served as the no competitor control. Then, going up from row G to row A, 50 μL of b-IL-17 (biotinylated human IL-17, R&D Systems #317-ILB; 20 nM) was added to all wells. Row H received 50 μL of PBST and served as the blank row, i.e., no compound and no b-IL-17. The plate was then incubated for 30 minutes at room temperature on the shaker.
After the wash, 100 μL Streptavidin-Horseradish Peroxidase (SA-HRP) (KPL #14-30-00) at 25 ng/mL in PBST was added to each well in the plate and the plate incubated for 30 minutes at room temperature followed by wash and 100 μL SureBlue™ TMB (KPL #52-00-03). After sufficient color development (approx 3-6 minutes), the reaction was fixed by the addition of 100 μL/well 0.5 N HCl and absorbance was measured at 450 nm on a BioTek Synergy 2 plate reader. The absorbances of ‘no competitor’ control and blank control should not exceed 1.5 A.U. and 0.06 A.U., respectively.
Data was processed using BioAssay Enterprise v10.1.4 (CambridgeSoft) software. Linear OD λ450 were plotted against log concentration (x) and fitted to a 4-parameter logistic equation. IC50 was calculated using positive ‘no competitor’ control data as an upper limit and blank control as a lower limit in each assay.
A general note: An ELISA detects its analyte on a solid surface through an enzyme-linked reagent.
Take `O=C1CC2(CCCC2)CC(=O)N[C@H](Cc2ccc(NC(=O)[C@H](Cc3ccccc3Cl)NC(=O)Cc3ccc(F)cc3)cc2)C(=O)N[C@H](Cc2ccccn2)C(=O)NCCCCCN1` [Compound 435]: the IC50 was under 100 nM.
Under `O=C1CC2(CCCC2)CC(=O)N[C@H](Cc2ccc(NC(=O)[C@@H](NC(=O)c3ccncc3)C3CCCCC3)cc2)C(=O)N[C@H](Cc2ccccn2)C(=O)NCCCCCN1` [Compound 436] stands 100 to 1000 nM.
As to `O=C1CNC(=O)[C@@H](Cc2ccc(-n3c(C(F)(F)F)nc(Cc4ccccc4Cl)c3OC(=O)C(F)(F)F)cc2)NC(=O)CC2(CCCC2)CC(=O)NCCCCCN1` [Compound 440], the IC50 lay in the range of 100 to 1000 nM.
Take `O=C(Cc1ccccc1)N[C@@H](Cc1ccccc1Cl)C(=O)Nc1ccc(C[C@H]2NC(=O)CC3(CCCC3)CC(=O)OCCNCCNC(=O)[C@@H](Cc3ccccc3)NC2=O)cc1` [Compound 444]: the IC50 was under 100 nM.
Turning to `CN1CCNCCOC(=O)CC2(CCCC2)CC(=O)N[C@H](Cc2ccc(NC(=O)[C@H](Cc3ccccc3Cl)NC(=O)Cc3ccccc3)cc2)C(=O)N[C@H](Cc2ccccc2)C1=O` [Compound 445], the concentration for half-maximal inhibition (IC50) is under 100 nM.
As for `CN1CCCC/C=C/CNC(=O)[C@@H](Cc2ccc(NC(=O)[C@H](Cc3ccccc3Cl)NC(=O)Cc3ccc(F)cc3)cc2)NC(=O)CC2(CCCC2)CC1=O` [Compound 447], the figure is under 100 nM.
As for `CN1CCCC/C=C/CNC(=O)[C@@H](Cc2ccc(NC(=O)[C@@H](NC(=O)c3cccnc3)C3CCCCC3)cc2)NC(=O)CC2(CCCC2)CC1=O` [Compound 448], the figure is 100 to 1000 nM; as for `O=C1CNC(=O)[C@@H](Cc2ccc(NC(=O)[C@@H](NC(=O)c3cnc4ccccc4c3)C3CCCCC3)cc2)NC(=O)CC2(CCCC2)CC(=O)NCCCCCN1` [Compound 449], 100 to 1000 nM; as for `O=C1CNC(=O)[C@@H](Cc2ccc(NC(=O)[C@@H](NC(=O)c3cncc4ccccc34)C3CCCCC3)cc2)NC(=O)CC2(CCCC2)CC(=O)NCCCCCN1` [Compound 450], under 100 nM.
As for `O=C1CC2(CCCC2)CC(=O)N[C@H](Cc2ccc(NC(=O)[C@H](Cc3ccccc3Cl)NC(=O)c3cccnc3)cc2)C(=O)N[C@@H](CO)C(=O)NCCCC[C@@H](C(=O)O)N1` [Compound 451], the figure is under 100 nM; as for `O=C1CNC(=O)[C@H](Cc2ccc(NC(=O)[C@@H](Cc3ccccc3Cl)NC(=O)Cc3ccccc3)cc2)NC(=O)CC2(CCCC2)CC(=O)NCCCCCN1` [Compound 452], 1000 to 10000 nM.
In the case of `O=C1CNC(=O)[C@H](Cc2ccc(NC(=O)[C@@H](Cc3ccccc3Cl)NC(=O)Cc3ccccc3)cc2)NC(=O)CC2(CCCC2)CC(=O)N[C@@H](C(=O)O)CCCCN1` [Compound 454], the 50% inhibitory concentration (IC50) was 1000 to 10000 nM.
In the case of `CC(=O)N[C@@H](Cc1ccccc1Cl)C(=O)Nc1ccc(C[C@H]2NC(=O)CC3(CCCC3)CC(=O)N[C@H](C(=O)O)CCCCNC2=O)cc1` [Compound 456], the IC50 lay within 100 to 1000 nM.
Under `O=C1CC2(CCCC2)CC(=O)N[C@H](Cc2ccc(NC(=O)[C@@H](NC(=O)c3cccnc3)C3CCCCC3)cc2)C(=O)NCC#CCCCCCN1` [Compound 458] stands 1000 to 10000 nM.
Under `COC(=O)[C@@H]1CCCCNC(=O)CNC(=O)[C@@H](Cc2ccc(NC(=O)[C@H](Cc3ccccc3Cl)NC(=O)NCc3ccccc3)cc2)NC(=O)CC2(CCCC2)CC(=O)N1` [Compound 459] stands under 100 nM; under `O=C1CC2(CCCC2)CC(=O)N[C@H](Cc2ccc(NC(=O)[C@H](Cc3ccccc3Cl)NC(=O)Cc3ccc(F)cc3)cc2)C(=O)NCCCC[C@@H](C(=O)O)N1` [Compound 460], under 100 nM; under `O=C1CC2(CCCC2)CC(=O)N[C@H](Cc2ccc(NC(=O)[C@H](Cc3ccccc3Cl)NC(=O)Cc3cccc(O)c3)cc2)C(=O)NCCCC[C@@H](C(=O)O)N1` [Compound 461], under 100 nM.
Under `CN1CCCCCNC(=O)[C@@H](C(C)(C)C)NC(=O)[C@@H](Cc2ccc(NC(=O)[C@H](Cc3ccccc3Cl)NC(=O)Cc3cccc(O)c3)cc2)NC(=O)CC2(CCCC2)CC1=O` [Compound 462] stands under 100 nM; under `O=C1CC2(CCCC2)CC(=O)N[C@H](Cc2ccc(NC(=O)[C@H](Cc3ccccc3Cl)NC(=O)NCc3ccccc3)cc2)C(=O)NCCOCCOCCN1` [Compound 463], under 100 nM; under `CNC(=O)N[C@@H](Cc1ccccc1Cl)C(=O)Nc1ccc(C[C@H]2NC(=O)CC3(CCCC3)CC(=O)NCCOCCOCCNC2=O)cc1` [Compound 464], under 100 nM.
On to `O=C1CC2(CCCC2)CC(=O)N[C@H](Cc2ccc(NC(=O)[C@H](Cc3ccccc3Cl)NC(=O)Cc3cccc(O)c3)cc2)C(=O)NCCNCCN1` [Compound 466], for which the IC50 is under 100 nM.
As for `CN1CCNC(=O)CC2(CCCC2)CC(=O)N[C@H](Cc2ccc(NC(=O)[C@H](Cc3ccccc3Cl)NC(=O)Cc3cccc(O)c3)cc2)C(=O)NCC1` [Compound 467], the figure is under 100 nM; as for `CC(=O)N[C@@H](Cc1ccccc1Cl)C(=O)Nc1ccc(C[C@H]2NC(=O)CC3(CCCC3)CC(=O)NCCCCCNC(=O)[C@@H](C)NC2=O)cc1` [Compound 468], under 100 nM; as for `CC(C)(C)[C@H]1NC(=O)[C@@H](Cc2ccc(NC(=O)[C@H](Cc3ccccc3Cl)NC(=O)C3(c4ccc(F)cc4)CC3)cc2)NC(=O)CC2(CCCC2)CC(=O)NCCCCCNC1=O` [Compound 471], 100 to 1000 nM.
Consider `O=C(O)CC[C@H]1NC(=O)[C@@H](Cc2ccc(NC(=O)[C@H](Cc3ccccc3Cl)NC(=O)C3(c4ccc(F)cc4)CC3)cc2)NC(=O)CC2(CCCC2)CC(=O)NCCCCCNC1=O` [Compound 472], for which the IC50 was under 100 nM.
In the case of `CN1C(=O)CC2(CCCC2)CC(=O)NCCOCCOCCNC(=O)[C@H]1Cc1ccc(NC(=O)[C@H](Cc2ccccc2Cl)NC(=O)Cc2ccc(F)cc2)cc1` [Compound 477], the IC50 is under 100 nM.
As for `O=C1CC2(CCCC2)CC(=O)N[C@H](Cc2ccc(NC(=O)[C@@H](NC(=O)Cc3cccc(O)c3)c3ccccc3)cc2)C(=O)NCCOCCOCCN1` [Compound 481], the figure is 100 to 1000 nM; as for `O=C1CC2(CCCC2)CC(=O)N[C@H](Cc2ccc(NC(=O)[C@H](Cc3ccccc3Cl)NC(=O)C3(c4ccc(F)cc4)CC3)cc2)C(=O)N[C@H](CO)C(=O)NCCCCCN1` [Compound 482], under 100 nM.
As for `C[C@H]1NC(=O)[C@@H](Cc2ccc(NC(=O)[C@H](Cc3ccccc3Cl)NC(=O)Cc3cccc(O)c3)cc2)NC(=O)CC2(CCCC2)CC(=O)NCCCCCNC1=O` [Compound 483], the figure is under 100 nM; as for `CN1CCNC(=O)CC2(CCCC2)CC(=O)N[C@H](Cc2ccc(NC(=O)[C@H](Cc3ccccc3Cl)NC(=O)NCc3ccccc3)cc2)C(=O)NCC1` [Compound 485], under 100 nM.
As for `C[C@H]1NC(=O)[C@@H](Cc2ccc(NC(=O)[C@H](Cc3ccccc3Cl)NC(=O)Cc3ccc(F)cc3)cc2)N(C)C(=O)CC2(CCCC2)CC(=O)NCCCCCNC1=O` [Compound 486], the figure is under 100 nM; as for `C[C@H]1NC(=O)[C@@H](Cc2ccc(NC(=O)[C@H](Cc3ccccc3Cl)NC(=O)Cc3ccc(F)cc3)cc2)N(C)C(=O)CC2(CCCC2)CC(=O)N(C)CCCCCN(C)C1=O` [Compound 489], under 100 nM; as for `CN1C(=O)CC2(CCCC2)CC(=O)NCCCCCC#CCNC(=O)[C@H]1Cc1ccc(NC(=O)[C@H](Cc2ccccc2Cl)NC(=O)C2(c3ccc(F)cc3)CC2)cc1` [Compound 491], 1000 to 10000 nM.
`C[C@H]1NC(=O)[C@@H](Cc2cccc(NC(=O)[C@H](Cc3ccccc3Cl)NC(=O)Cc3ccc(F)cc3)c2)NC(=O)CC2(CCCC2)CC(=O)NCCCCCNC1=O` [Compound 492]: the half-maximal inhibitory concentration (IC50) is 100 to 1000 nM.
As for `Cc1cccc(CC(=O)N[C@@H](Cc2ccccc2Cl)C(=O)Nc2ccc(C[C@H]3NC(=O)CC4(CCCC4)CC(=O)NCCOCCOCCNC3=O)cc2)c1` [Compound 496], the figure is under 100 nM; as for `CN1C(=O)CC2(CCCC2)CC(=O)NCCCCC#CCNC(=O)[C@H]1Cc1ccc(NC(=O)[C@H](Cc2ccccc2Cl)NC(=O)C2(c3ccc(F)cc3)CC2)cc1` [Compound 498], 1000 to 10000 nM.
Under `O=C(Cc1ccc(F)cc1)N[C@@H](Cc1ccccc1Cl)C(=O)Nc1ccc(C[C@H]2NC(=O)CC3(CCCC3)CC(=O)OCCCC/C=C/CNC2=O)cc1` [Compound 500] stands under 100 nM.
